The subject of one experiment is CWR22R. Nature of the experiment: Cytotoxicity against human 22Rv1 cells assessed as cell viability at 20 uM incubated for 72 hrs by resazurin dye based microplate reader assay. The note with it: read-out: Activity. It counts as functional.
The test system of experiment [1] is LAPC4. The experiment is described as follows: Cytotoxicity against human LAPC4 cells assessed as cell viability at 20 uM incubated for 72 hrs by resazurin dye based microplate reader assay. The format is functional. The note with it: read-out: Activity. (The colour change of resazurin is a common sign of viable cells or microbes.)
A further experiment deals with DU-145. Nature of the experiment: Cytotoxicity against human DU-145 cells assessed as cell viability at 20 uM incubated for 72 hrs by resazurin dye based microplate reader assay. The format is functional. The note with it: read-out: Activity.
For experiment [2], the system named is LAPC4. Nature of the experiment: Inhibition of colony formation in human LAPC4 cells at 10 uM incubated for 10 days by crystal violet staining based assay. It counts as functional. The note with it: LAPC4, 240 h, time 10 day.
Experiment [3] relates to LAPC4. Nature of the experiment: Downregulation of Nkx3.1 protein expression in human LAPC4 cells at 10 uM incubated for 24 hrs by immunoblotting analysis. It counts as functional, cell-based.
Experiment [4] in a line: Downregulation of AR protein expression in human LAPC4 cells assessed as AR levels at 10 uM incubated for 24 hrs by immunoblotting analysis. The format is functional. On the technique in general: A western blot detects proteins with antibodies after separation by electrophoresis.
Experiment [5] deals with LAPC4. Nature of the experiment: Downregulation of PSA protein expression in human LAPC4 cells at 10 uM incubated for 24 hrs by immunoblotting analysis. The format is functional, cell-based.
In experiment [6] the test system is LAPC4. Nature of the experiment: Inhibition of colony formation in human LAPC4 cells at 5 uM incubated for 10 days by crystal violet staining based assay. To be noted: time 10.0 day. The format is functional, cell-based.

The source made the active and inactive calls. The rule behind the calls is not given here.

The inhibition is the change of the read-out against control, counted positive when it falls. With `C[C@]12Cc3cnn(-c4ccc(Cl)cc4)c3C[C@@H]1CC[C@@H]1[C@@H]2CC[C@]2(C)[C@@H](O)CC[C@@H]12`, the results for the viability at 20 µM in the experiment on CWR22R, in the experiment with LAPC4 [1] and in the experiment with DU-145 were 80%, 49% and 91%, respectively. This molecule gave an inhibition at 10 µM in the experiment on LAPC4 [2] of 0%. Besides, the outcome in the experiment on LAPC4 [3] and in the experiment on LAPC4 [5] was Active. In addition, the Activity entry in experiment [4] was “>=100%”.
On to `COc1ccc(-n2cc3c(n2)C[C@@H]2CC[C@@H]4[C@H](CC[C@]5(C)[C@@H](O)CC[C@@H]45)[C@@]2(C)C3)cc1`, for which the viability at 20 µM in the experiment on CWR22R is not below 100%; in the experiment on LAPC4 [1], 99%; in the experiment on DU-145, not below 100%. For the same molecule, the inhibition at 10 µM with LAPC4 [2] was 65%. Further, the outcome in the experiment on LAPC4 [3] and in the experiment on LAPC4 [5] was inactive. In addition, in experiment [4], the Activity result was “>=100%”.
As for `COc1ccc(-c2c3c(nn2C)C[C@@H]2CC[C@@H]4[C@H](CC[C@]5(C)C(=O)CC[C@@H]45)[C@@]2(C)C3)cc1`, the viability at 20 µM amounted to 58% in the experiment on CWR22R, 35% in the experiment with LAPC4 [1] and 97% in the experiment with DU-145. Besides, in the experiment on LAPC4 [2], 10 µM produced 34% inhibition. The Activity entry in experiment [4] was “>=100%”. In addition, the inhibition result in the experiment with LAPC4 [6] is “Active”.
Regarding `C[C@]12Cc3cn(-c4ccccc4)nc3C[C@@H]1CC[C@@H]1[C@@H]2CC[C@]2(C)[C@@H](O)CC[C@@H]12`, the figures for the viability at 20 µM in the experiment with CWR22R, in the experiment with LAPC4 [1] and in the experiment on DU-145 were not below 100%, 100% and not below 100%, respectively. The molecule also gave an inhibition at 10 µM in the experiment with LAPC4 [2] of 59%. The outcome with LAPC4 [3] and in the experiment on LAPC4 [5] was inactive. Also, the Activity result in experiment [4] was “>=100%”.
On to `Cc1ccc(-n2ncc3c2C[C@@H]2CC[C@@H]4[C@H](CC[C@]5(C)[C@@H](O)CC[C@@H]45)[C@@]2(C)C3)cc1`, for which the viability at 20 µM in the experiment with CWR22R worked out at 97%; with LAPC4 [1], 70%; in the experiment on DU-145, 96%. In the experiment on LAPC4 [2], this molecule came in with an inhibition at 10 µM of 0%. Further, the outcome in the experiment with LAPC4 [3] and with LAPC4 [5] was Active. For the same molecule, in experiment [4], the Activity entry is listed as “>=100%”.
As for `C[C@]12Cc3cn(-c4ccc([N+](=O)[O-])cc4)nc3C[C@@H]1CC[C@@H]1[C@@H]2CC[C@]2(C)[C@@H](O)CC[C@@H]12`, the viability at 20 µM with CWR22R is not below 100%; with LAPC4 [1], 96%; with DU-145, 99%. 10 µM produced 93% inhibition with LAPC4 [2]. In addition, the outcome in the experiment on LAPC4 [3] and in the experiment on LAPC4 [5] was inactive. Besides, the Activity entry in experiment [4] is “>=100%”.
In the case of `COc1ccc(-c2c3c(nn2C)C[C@@H]2CC[C@@H]4[C@H](CC[C@]5(C)[C@@H](O)CC[C@@H]45)[C@@]2(C)C3)cc1`, the viability at 20 µM in the experiment with CWR22R was 33%; in the experiment with LAPC4 [1], 51%; in the experiment with DU-145 it was not below 100%. The inhibition at 10 µM in the experiment with LAPC4 [2] turned out to be 5%. The Activity in experiment [4] is recorded as 85%. Also, the inhibition result in the experiment on LAPC4 [6] was “Active”.
In the case of `Cn1nc2c(c1-c1ccccc1)C[C@@]1(C)[C@@H](CC[C@@H]3[C@@H]1CC[C@]1(C)C(=O)CC[C@@H]31)C2`, the viability at 20 µM is 68% in the experiment on CWR22R, 36% in the experiment on LAPC4 [1] and not below 100% with DU-145. In the experiment with LAPC4 [2], this molecule showed an inhibition at 10 µM of 21%. The Activity in experiment [4] was 65%. Further, in the experiment with LAPC4 [6], the inhibition entry was “Active”.
Turning to `C[C@]12Cc3cn(-c4ccc(Cl)cc4)nc3C[C@@H]1CC[C@@H]1[C@@H]2CC[C@]2(C)[C@@H](O)CC[C@@H]12`, the viability at 20 µM was not below 100% in the experiment on CWR22R, 82% in the experiment with LAPC4 [1] and not below 100% in the experiment on DU-145. In the experiment with LAPC4 [2], this molecule returned an inhibition at 10 µM of 98%. For the same molecule, the outcome in the experiment with LAPC4 [3] and in the experiment with LAPC4 [5] was inactive. Further, in experiment [4], the Activity result is recorded as “>=100%”.
Regarding `C[C@]12Cc3cnn(-c4ccccc4)c3C[C@@H]1CC[C@@H]1[C@@H]2CC[C@]2(C)[C@@H](O)CC[C@@H]12`, the viability at 20 µM with CWR22R came to 36%; in the experiment on LAPC4 [1], 60%; in the experiment on DU-145, 97%. For the same molecule, in the experiment on LAPC4 [2], testing at 10 µM gave an inhibition of 1%. Moreover, the outcome with LAPC4 [3] and with LAPC4 [5] was Active. Further, the Activity result in experiment [4] was “>=100%”.
Regarding `Cn1nc2c(c1-c1ccccc1)C[C@@]1(C)[C@@H](CC[C@@H]3[C@@H]1CC[C@]1(C)[C@@H](O)CC[C@@H]31)C2`, the viability at 20 µM came to 48% in the experiment on CWR22R, 51% in the experiment with LAPC4 [1] and 100% in the experiment with DU-145. In the experiment on LAPC4 [2], this molecule had an inhibition at 10 µM of 2%. Besides, the Activity in experiment [4] was found to be 93%. Besides, the inhibition result in the experiment on LAPC4 [6] is “Active”.
For the molecule `Cc1ccc(-c2c3c(nn2C)C[C@@H]2CC[C@@H]4[C@H](CC[C@]5(C)C(=O)CC[C@@H]45)[C@@]2(C)C3)cc1`, the viability at 20 µM is 73% in the experiment on CWR22R, 34% in the experiment on LAPC4 [1] and not below 100% in the experiment with DU-145. Moreover, 10 µM produced 23% inhibition in the experiment on LAPC4 [2]. For the same molecule, the Activity in experiment [4] is 92%. Besides, the inhibition result in the experiment on LAPC4 [6] is “Active”.
For `Cn1nc2c(c1-c1ccc(Cl)cc1)C[C@@]1(C)[C@@H](CC[C@@H]3[C@@H]1CC[C@]1(C)C(=O)CC[C@@H]31)C2`, the viability at 20 µM came out at 61% with CWR22R, 21% in the experiment on LAPC4 [1] and 98% in the experiment on DU-145. The molecule further registered an inhibition at 10 µM in the experiment with LAPC4 [2] of 11%. Moreover, in experiment [4], the Activity stood at 67%. The inhibition result in the experiment with LAPC4 [6] is “Active”.
With `Cn1nc2c(c1-c1ccc(F)cc1)C[C@@]1(C)[C@@H](CC[C@@H]3[C@@H]1CC[C@]1(C)C(=O)CC[C@@H]31)C2`, the viability at 20 µM in the experiment with CWR22R is 57%; in the experiment on LAPC4 [1] it was 29%; in the experiment on DU-145, 90%. Besides, testing at 10 µM in the experiment with LAPC4 [2] gave an inhibition of 17%. In addition, the Activity in experiment [4] was determined as 100%. Also, in the experiment on LAPC4 [6], the inhibition entry is “Active”.
Take `Cn1nc2c(c1-c1ccc(F)cc1)C[C@@]1(C)[C@@H](CC[C@@H]3[C@@H]1CC[C@]1(C)[C@@H](O)CC[C@@H]31)C2`: the values for the viability at 20 µM with CWR22R, with LAPC4 [1] and with DU-145 were 26%, 44% and 89%, respectively. In addition, testing at 10 µM with LAPC4 [2] gave an inhibition of 16%. Moreover, the Activity in experiment [4] is listed as 83%. Further, the inhibition result with LAPC4 [6] is “Active”.
In the case of `Cn1nc2c(c1-c1ccc(Br)cc1)C[C@@]1(C)[C@@H](CC[C@@H]3[C@@H]1CC[C@]1(C)[C@@H](O)CC[C@@H]31)C2`, the viability at 20 µM was determined as 21% in the experiment with CWR22R, 42% in the experiment with LAPC4 [1] and 94% with DU-145. In the experiment on LAPC4 [2], the inhibition at 10 µM was found to be 16%. For the same molecule, the Activity in experiment [4] is given as 79%. In the experiment with LAPC4 [6], the inhibition entry is “Active”.
Consider `Cn1nc2c(c1-c1cccs1)C[C@@]1(C)[C@@H](CC[C@@H]3[C@@H]1CC[C@]1(C)C(=O)CC[C@@H]31)C2`, for which the viability at 20 µM with CWR22R was 68%; with LAPC4 [1], 31%; in the experiment with DU-145, 100%. In the experiment on LAPC4 [2], testing at 10 µM gave an inhibition of 4%. In addition, the Activity in experiment [4] is given as 92%. Also, in the experiment with LAPC4 [6], the inhibition entry is “Active”.

Source of the values: ChEMBL document CHEMBL5346877, “A-ring-fused pyrazoles of dihydrotestosterone targeting prostate cancer cells via the downregulation of the androgen receptor” (Eur J Med Chem, 2023).
